According to patent US20250195530A1, “POLQ INHIBITORS” (ASTRAZENECA AB, priority 2022, published 2025):
Like-named read-outs stand apart in the source and are kept apart here.

System: DLD-1 BRCA2−/− cells
Test: Homologous recombination synthetic lethal inhibition of proliferation, DLD-1 BRCA2-/- (Cell Titre Glo 3D)
Format: cell-based
Settings: Homo sapiens
Procedure, shortened: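 Isogenic DLD-1 pair; BRCA2−/− seeded 3,000 cells/mL and read day 12, wt seeded 1,500 cells/mL and read day 7. 10-pt titration (top 10 μM, 3-fold), re-fed with compound day 6, 37 °C/5% CO2. CTG 3D endpoint; IC50 at 50% signal loss.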

[1] = DLD-1, DLD-1 BRCA2 −/− cells, mean, read-out: POLQ PD Prolif Lumin BRCA2 −/− mean pIC50 (converted)
[2] = DLD-1, first proliferation column (c5), DLD-1 BRCA2-/-, read-out: POLQ PD Prolif Lumin (converted)

Compound | IC50 [1] | IC50 [2]
Cc1ccccc1Cn1c(-c2ccc(CC(N)=O)cc2Cl)nc2c(OC3(C)CC3)ncnc21 [Example T101, 2-(3-chloro-4-(9-(2-methylbenzyl)-6-(1-methylcyclopropoxy)-9H-purin-8-yl)phenyl)acetamide] | 501 nM | 
CC1(Oc2ncnc3c2nc(-c2ccc(CC(N)=O)cc2Cl)n3CCc2ccccc2)CC1 [Example T102, 2-(3-chloro-4-(6-(1-methylcyclopropoxy)-9-phenethyl-9H-purin-8-yl)phenyl)acetamide] | 1580 nM | 
Cc1ccnc(Cn2c(-c3ccc(OC4COC4)cc3Cl)nc3c(OC4(C)CC4)ncnc32)c1 [Example T103, 8-(2-chloro-4-(oxetan-3-yloxy)phenyl)-6-(1-methylcyclopropoxy)-9-((4-methylpyridin-2-yl)methyl)-9H-purine] | 158 nM | 
COc1cccc(Cn2c(-c3ccc(CC(N)=O)cc3Cl)nc3c(OC4(C)CC4)ncnc32)c1 [Example T105, 2-(3-chloro-4-(9-(3-methoxybenzyl)-6-(1-methylcyclopropoxy)-9H-purin-8-yl)phenyl)acetamide] |  | 631 nM
COc1ccc(Cn2c(-c3ccc(CC(N)=O)cc3Cl)nc3c(OC4(C)CC4)ncnc32)cc1 [Example T106, 2-(3-chloro-4-(9-(4-methoxybenzyl)-6-(1-methylcyclopropoxy)-9H-purin-8-yl)phenyl)acetamide] |  | 631 nM
Cc1ccnc(Cn2c(-c3ccc(OCCCF)cc3Cl)nc3c(OC4(C)CC4)ncnc32)c1 [Example T108, 8-(2-chloro-4-(3-fluoropropoxy)phenyl)-6-(1-methylcyclopropoxy)-9-((4-methylpyridin-2-yl)methyl)-9H-purine] |  | 126 nM
CNC(=O)Cc1ccc(-c2nc3c(OC4(C)CC4)ncnc3n2Cc2cc(C)ccn2)c(Cl)c1 [Example T113, 2-(3-chloro-4-(6-(1-methylcyclopropoxy)-9-((4-methylpyridin-2-yl)methyl)-9H-purin-8-yl)phenyl)-N-methylacetamide] |  | 316 nM
CCNC(=O)c1ccc(-c2nc3c(OC4(C)CC4)ncnc3n2Cc2cc(C)ccn2)c(Cl)c1 [Example T114, 3-chloro-N-ethyl-4-(6-(1-methylcyclopropoxy)-9-((4-methylpyridin-2-yl)methyl)-9H-purin-8-yl)benzamide] |  | 316 nM
Cc1ccnc(Cn2c(-c3ccc(N4CC(O)C4)cc3Cl)nc3c(OC4(C)CC4)ncnc32)c1 [Example T115, 1-(3-chloro-4-(6-(1-methylcyclopropoxy)-9-((4-methylpyridin-2-yl)methyl)-9H-purin-8-yl)phenyl)azetidin-3-ol] |  | 200 nM
CNC(=O)COc1ccc(-c2nc3c(OC4(C)CC4)ncnc3n2Cc2cc(C)ccn2)c(Cl)c1 [Example T118, 2-(3-chloro-4-(6-(1-methylcyclopropoxy)-9-((4-methylpyridin-2-yl)methyl)-9H-purin-8-yl)phenoxy)-N-methylacetamide] |  | 251 nM
CNC(=O)COc1ccc(Cl)c(-c2nc3c(OC4(C)CC4)ncnc3n2Cc2cc(C)ccn2)c1 [Example T122, 2-(4-chloro-3-(6-(1-methylcyclopropoxy)-9-((4-methylpyridin-2-yl)methyl)-9H-purin-8-yl)phenoxy)-N-methylacetamide] |  | 6310 nM
Cc1ccnc(Cn2c(-c3ccc(OCCCO)cc3Cl)nc3c(OC4(C)CC4)ncnc32)c1 [Example T124, 3-(3-chloro-4-(6-(1-methylcyclopropoxy)-9-((4-methylpyridin-2-yl)methyl)-9H-purin-8-yl)phenoxy)propan-1-ol] |  | 79.4 nM
COCCOc1ccc(-c2nc3c(OC4(C)CC4)ncnc3n2Cc2cc(C)ccn2)c(Cl)c1 [Example T125, 8-(2-chloro-4-(2-methoxyethoxy)phenyl)-6-(1-methylcyclopropoxy)-9-((4-methylpyridin-2-yl)methyl)-9H-purine] |  | 100 nM
Cc1ccnc(Cn2c(-c3ccc(NC(=O)N(C)C)cc3Cl)nc3c(OC4(C)CC4)ncnc32)c1 [Example T130, 3-(3-chloro-4-(6-(1-methylcyclopropoxy)-9-((4-methylpyridin-2-yl)methyl)-9H-purin-8-yl)phenyl)-1,1-dimethylurea] |  | 501 nM
CNC(=O)CNc1ccc(-c2nc3c(OC4(C)CC4)ncnc3n2Cc2cc(C)ccn2)c(Cl)c1 [Example T131, 2-((3-chloro-4-(6-(1-methylcyclopropoxy)-9-((4-methylpyridin-2-yl)methyl)-9H-purin-8-yl)phenyl)amino)-N-methylacetamide] |  | 794 nM
Cc1ccnc(Cn2c(-c3ccc(OCCNC(N)=O)cc3Cl)nc3c(OC4(C)CC4)ncnc32)c1 [Example T133, 1-(2-(3-chloro-4-(6-(1-methylcyclopropoxy)-9-((4-methylpyridin-2-yl)methyl)-9H-purin-8-yl)phenoxy)ethyl)urea] |  | 251 nM

Compound | IC50 [1] | IC50 [2]
Cc1cnc(Cn2c(-c3ccc(OCCN4CC(O)C4)cc3Cl)nc3c(OC4(C)CC4)ncnc32)s1 [Example T141, 1-(2-(3-chloro-4-(6-(1-methylcyclopropoxy)-9-((5-methylthiazol-2-yl)methyl)-9H-purin-8-yl)phenoxy)ethyl)azetidin-3-ol] |  | 501 nM
Cc1ccnc(Cn2c(-c3ccc(CCNS(C)(=O)=O)cc3Cl)nc3c(OC4(C)CC4)ncnc32)c1 [Example T143, N-(3-chloro-4-(6-(1-methylcyclopropoxy)-9-((4-methylpyridin-2-yl)methyl)-9H-purin-8-yl)phenethyl)methanesulfonamide] |  | 398 nM
Cc1ccnc(Cn2c(-c3ccc(OCCNS(C)(=O)=O)cc3Cl)nc3c(OC4(C)CC4)ncnc32)c1 [Example T144, N-(2-(3-chloro-4-(6-(1-methylcyclopropoxy)-9-((4-methylpyridin-2-yl)methyl)-9H-purin-8-yl)phenoxy)ethyl)methanesulfonamide] |  | 158 nM
C#CCNC(=O)c1ccc(-c2nc3c(OC4(C)CC4)ncnc3n2Cc2cc(C)ccn2)c(Cl)c1 [Example T152, 3-chloro-4-(6-(1-methylcyclopropoxy)-9-((4-methylpyridin-2-yl)methyl)-9H-purin-8-yl)-N-(prop-2-yn-1-yl)benzamide] |  | 398 nM
Cc1ccnc(Cn2c(-c3ccc(C(=O)N4CC(F)C4)cc3Cl)nc3c(OC4(C)CC4)ncnc32)c1 [Example T153, (3-chloro-4-(6-(1-methylcyclopropoxy)-9-((4-methylpyridin-2-yl)methyl)-9H-purin-8-yl)phenyl)(3-fluoroazetidin-1-yl)methanone] |  | 501 nM
Cc1ccnc(Cn2c(-c3ccc(OCC(=O)NCC(F)(F)F)cc3Cl)nc3c(OC4(C)CC4)ncnc32)c1 [Example T154, 2-(3-chloro-4-(6-(1-methylcyclopropoxy)-9-((4-methylpyridin-2-yl)methyl)-9H-purin-8-yl)phenoxy)-N-(2,2,2-trifluoroethyl)acetamide] |  | 200 nM
CC1(Oc2ncnc3c2nc(-c2ccc(CCCC(=O)O)cc2Cl)n3Cc2cccc(Cl)c2)CC1 [Example T155, 4-(3-chloro-4-(9-(3-chlorobenzyl)-6-(1-methylcyclopropoxy)-9H-purin-8-yl)phenyl)butanoic acid] |  | 631 nM
COC(=O)CCOc1ccc(-c2nc3c(OC4(C)CC4)ncnc3n2Cc2cccc(Cl)c2)c(Cl)c1 [Example T156, methyl 3-(3-chloro-4-(9-(3-chlorobenzyl)-6-(1-methylcyclopropoxy)-9H-purin-8-yl)phenoxy)propanoate] |  | 200 nM
C[C@H](COc1cccc(-c2nc3c(OC4(C)CC4)ncnc3n2Cc2cccc(Cl)c2)c1Cl)C(=O)O [Example T159, (R)-3-(2-chloro-3-(9-(3-chlorobenzyl)-6-(1-methylcyclopropoxy)-9H-purin-8-yl)phenoxy)-2-methylpropanoic acid] |  | 126 nM
C[C@@H](COc1cccc(-c2nc3c(OC4(C)CC4)ncnc3n2Cc2cccc(Cl)c2)c1Cl)C(=O)O [Example T160, (S)-3-(2-chloro-3-(9-(3-chlorobenzyl)-6-(1-methylcyclopropoxy)-9H-purin-8-yl)phenoxy)-2-methylpropanoic acid] |  | 200 nM
CC1(Oc2ncnc3c2nc(-c2cccc(OCCOCC(=O)O)c2Cl)n3Cc2cccc(Cl)c2)CC1 [Example T162, 2-(2-(2-chloro-3-(9-(3-chlorobenzyl)-6-(1-methylcyclopropoxy)-9H-purin-8-yl)phenoxy)ethoxy)acetic acid] |  | 126 nM
CC1(Oc2ncnc3c2nc(-c2cccc(OCCCc4nn[nH]n4)c2Cl)n3Cc2cccc(Cl)c2)CC1 [Example T163, 8-(3-(3-(2H-tetrazol-5-yl)propoxy)-2-chlorophenyl)-9-(3-chlorobenzyl)-6-(1-methylcyclopropoxy)-9H-purine] |  | 251 nM
CC1(Oc2ncnc3c2nc(-c2ccc(OCCCc4nnn[nH]4)cc2Cl)n3Cc2cccc(Cl)c2)CC1 [Example T164, 8-(4-(3-(1H-tetrazol-5-yl)propoxy)-2-chlorophenyl)-9-(3-chlorobenzyl)-6-(1-methylcyclopropoxy)-9H-purine] |  | 794 nM
Cc1ccnc(Cn2c(-c3ccc(CC(=O)NCC(F)F)cc3Cl)nc3c(OC4(C)CC4)ncnc32)c1 [Example T165, 2-(3-chloro-4-(6-(1-methylcyclopropoxy)-9-((4-methylpyridin-2-yl)methyl)-9H-purin-8-yl)phenyl)-N-(2,2-difluoroethyl)acetamide] |  | 100 nM
Cc1ccnc(Cn2c(-c3ccc(OCC(=O)NCC(F)F)cc3Cl)nc3c(OC4(C)CC4)ncnc32)c1 [Example T166, 2-(3-chloro-4-(6-(1-methylcyclopropoxy)-9-((4-methylpyridin-2-yl)methyl)-9H-purin-8-yl)phenoxy)-N-(2,2-difluoroethyl)acetamide] |  | 316 nM
Cc1cccc(Cn2c(-c3ccc(OCCC(=O)O)cc3Cl)nc3c(OC4(C)CC4)ncnc32)c1 [Example T167, 3-(3-chloro-4-(9-(3-methylbenzyl)-6-(1-methylcyclopropoxy)-9H-purin-8-yl)phenoxy)propanoic acid] |  | 794 nM
